Source: PMC11742723, “The clinical-stage drug BTZ-043 accumulates in murine tuberculosis lesions and efficiently acts against Mycobacterium tuberculosis” (Nature Communications, 2025)
Several values for one entry are separate records, joined by “and”; a condition that tells them apart may be missing. Identical values can stand only once. Like-named read-outs stand apart in the source and are kept apart here.

How the values were obtained:
Mtb H37Rv = test: BTZ-043 dose escalation study in Mtb-infected BALB/c mice (pulmonary CFU); format: in vivo, Mycobacterium tuberculosis; details: for pulmonary CFU counts / mouse: individual female mice
Mtb = test: Lesional efficacy: LCM of necrotic core and Mtb 16S rRNA molecular bacterial load assay (MBLA); format: in vivo, Mycobacterium tuberculosis; details: for CFU / mm3 (MBLA): BTZ-043 [250 mg/kg], individual mice, 250 mg/kg
[1] = for ng BTZ-043 / mg cryosection: individual cryosections; for BTZ-043 concentration in lung cryosections: Mtb-infected IL-13tg mice, 10 daily doses 250 mg/kg, one mouse each, n=5 cryosections, 250 mg/kg
[2] = Impact of γ-irradiation on BTZ-043 in spiked liver mimetic tissue cryosections; design: species or system mouse; details: BTZ-043 spiked liver homogenate section (9.7 µg/g), irradiation
[3] = BALB/c, 8 weeks, 3 highest doses (250-1000 mg/kg/day)

Question: For `C[C@H]1COC2(CCN(c3nc(=O)c4cc(C(F)(F)F)cc([N+](=O)[O-])c4s3)CC2)O1` [BTZ-043], which “pulmonary CFU counts / mouse” value (Mtb H37Rv; 50 mg/kg BTZ-043, 4 weeks of treatment) is on record?
Answer: 555882 CFU counts / mouse and 499154 CFU counts / mouse and 2156250 CFU counts / mouse and 558800 CFU counts / mouse and 525176 CFU counts / mouse and 501563 CFU counts / mouse

Question: And the “pulmonary CFU counts / mouse” value (Mtb H37Rv; 50 mg/kg BTZ-043, 6 weeks of treatment)?
Answer: 151667 CFU counts / mouse and 250364 CFU counts / mouse and 426300 CFU counts / mouse and 300706 CFU counts / mouse and 257455 CFU counts / mouse and 439714 CFU counts / mouse

Question: And the “pulmonary CFU counts / mouse” value (Mtb H37Rv; 50 mg/kg BTZ-043, 8 weeks of treatment)?
Answer: 287143 CFU counts / mouse and 182471 CFU counts / mouse and 166050 CFU counts / mouse and 110400 CFU counts / mouse and 84000 CFU counts / mouse

Question: What about the “pulmonary CFU counts / mouse” value (Mtb H37Rv; 100 mg/kg BTZ-043, 4 weeks of treatment) of the same compound?
Answer: 416625 CFU counts / mouse and 429231 CFU counts / mouse and 396000 CFU counts / mouse and 458571 CFU counts / mouse and 415800 CFU counts / mouse and 472500 CFU counts / mouse

Question: What about the “pulmonary CFU counts / mouse” value (Mtb H37Rv; 100 mg/kg BTZ-043, 6 weeks of treatment) of the same compound?
Answer: 34200 CFU counts / mouse and 61091 CFU counts / mouse and 157500 CFU counts / mouse and 207692 CFU counts / mouse and 197308 CFU counts / mouse and 173438 CFU counts / mouse

Question: And the “pulmonary CFU counts / mouse” value (Mtb H37Rv; 100 mg/kg BTZ-043, 8 weeks of treatment)?
Answer: 156000 CFU counts / mouse and 66000 CFU counts / mouse and 39129 CFU counts / mouse and 101769 CFU counts / mouse and 139765 CFU counts / mouse and 67765 CFU counts / mouse

Question: What about the “pulmonary CFU counts / mouse” value (Mtb H37Rv; 250 mg/kg BTZ-043, 4 weeks of treatment) of the same compound?
Answer: 634800 CFU counts / mouse and 254308 CFU counts / mouse and 513000 CFU counts / mouse and 409500 CFU counts / mouse and 484500 CFU counts / mouse and 249923 CFU counts / mouse

Question: And the “pulmonary CFU counts / mouse” value (Mtb H37Rv; 250 mg/kg BTZ-043, 6 weeks of treatment)?
Answer: 49400 CFU counts / mouse and 35888 CFU counts / mouse and 49309 CFU counts / mouse and 39877 CFU counts / mouse and 52521 CFU counts / mouse and 45750 CFU counts / mouse

Question: And the “pulmonary CFU counts / mouse” value (Mtb H37Rv; 250 mg/kg BTZ-043, 8 weeks of treatment)?
Answer: 25080 CFU counts / mouse and 15273 CFU counts / mouse and 21930 CFU counts / mouse and 15218 CFU counts / mouse and 42694 CFU counts / mouse and 15750 CFU counts / mouse

Question: And the “pulmonary CFU counts / mouse” value (Mtb H37Rv; 500 mg/kg BTZ-043, 4 weeks of treatment)?
Answer: 154286 CFU counts / mouse and 324000 CFU counts / mouse and 360000 CFU counts / mouse and 251750 CFU counts / mouse and 312857 CFU counts / mouse and 230769 CFU counts / mouse

Question: And the “pulmonary CFU counts / mouse” value (Mtb H37Rv; 500 mg/kg BTZ-043, 6 weeks of treatment)?
Answer: 54000 CFU counts / mouse and 150231 CFU counts / mouse and 60750 CFU counts / mouse and 101769 CFU counts / mouse and 56100 CFU counts / mouse and 15346 CFU counts / mouse

Question: What about the “pulmonary CFU counts / mouse” value (Mtb H37Rv; 500 mg/kg BTZ-043, 8 weeks of treatment) of the same compound?
Answer: 13200 CFU counts / mouse and 24750 CFU counts / mouse and 35550 CFU counts / mouse and 13714 CFU counts / mouse and 20250 CFU counts / mouse and 14657 CFU counts / mouse

Question: And the “pulmonary CFU counts / mouse” value (Mtb H37Rv; 1000 mg/kg BTZ-043, 4 weeks of treatment)?
Answer: 228000 CFU counts / mouse and 325600 CFU counts / mouse and 166909 CFU counts / mouse and 226154 CFU counts / mouse and 205800 CFU counts / mouse and 140000 CFU counts / mouse

Question: What about the “pulmonary CFU counts / mouse” value (Mtb H37Rv; 1000 mg/kg BTZ-043, 6 weeks of treatment) of the same compound?
Answer: 42075 CFU counts / mouse and 43131 CFU counts / mouse and 54450 CFU counts / mouse and 36450 CFU counts / mouse and 58900 CFU counts / mouse and 98571 CFU counts / mouse

Question: What about the “pulmonary CFU counts / mouse” value (Mtb H37Rv; 1000 mg/kg BTZ-043, 8 weeks of treatment) of the same compound?
Answer: 9208 CFU counts / mouse and 16615 CFU counts / mouse and 22100 CFU counts / mouse and 11500 CFU counts / mouse and 17738 CFU counts / mouse and 28600 CFU counts / mouse

Question: And the “reduction of bacterial burden in comparison to the vehicle control group” value (Mtb H37Rv; BALB/c lungs, 4 weeks of therapy, all doses 50-1000 mg/kg/day microcrystalline BTZ-043, oral 5 days/week)?
Answer: > 0.7 log10 CFU

Question: What about the “antimycobacterial activity compared to INH (25 mg/kg/day)” value (Mtb H37Rv; BALB/c, 6 weeks, 50 mg/kg/day) of the same compound?
Answer: reduced

Question: What about the “antimycobacterial activity compared to INH (25 mg/kg/day)” value (Mtb H37Rv; BALB/c, 6 weeks, 100 mg/kg/day) of the same compound?
Answer: comparable

Question: And the “antimycobacterial activity compared to INH (25 mg/kg/day)” value (Mtb H37Rv; BALB/c, 6 weeks, 250, 500 and 1000 mg/kg/day)?
Answer: significantly greater antimycobacterial activity than the first-line drug INH

Question: And the “efficacy compared to INH therapy” value (Mtb H37Rv; [3])?
Answer: significantly increased efficacy

Question: What about the “pulmonary bacterial burden lower than the vehicle control group” value (Mtb H37Rv; [3]) of the same compound?
Answer: more than 2.4 log10 CFU

Question: What about the “lowest dose with maximum effect (LME)” value (Mtb H37Rv; mouse model of TB (BALB/c), microcrystalline BTZ-043) of the same compound?
Answer: 250 mg/kg/day

Question: What about the “CFU / mm3 (MBLA)” value (Mtb; 2 weeks of therapy) of the same compound?
Answer: 322664 CFU / mm3 and 2329437 CFU / mm3

Question: And the “CFU / mm3 (MBLA)” value (Mtb; 4-6 weeks of therapy)?
Answer: 228171 CFU / mm3 and 91947 CFU / mm3 and 205657 CFU / mm3

Question: What about the “Mtb 16S rRNA expression in the necrotic center compared to the vehicle group” value (Mtb; IL-13tg mice, 250 mg/kg 5 times a week, 2 weeks of treatment) of the same compound?
Answer: decreased

Question: What about the “bacterial load in the necrotic center” value (Mtb; IL-13tg mice, 250 mg/kg 5 times a week, further course of therapy (4 to 6 weeks)) of the same compound?
Answer: strongly reduced

Question: What about the “reduction of bacterial burden in necrotic areas of granulomas (Mtb 16S rRNA)” value (Mtb; IL-13tg mice, LCM-isolated necrotic areas) of the same compound?
Answer: 2 log10

Question: What about the “ng BTZ-043 / mg cryosection” value ([1]; 2 h after administration, mouse KW116 B9#1 (male)) of the same compound?
Answer: 1.02 ng / mg cryosection and 0.92 ng / mg cryosection and 0.62 ng / mg cryosection

Question: What about the “ng BTZ-043 / mg cryosection” value ([1]; 8 h after administration, mouse KW116 B15#1 (female)) of the same compound?
Answer: 0.27 ng / mg cryosection (2×) and 0.21 ng / mg cryosection and 0.36 ng / mg cryosection

Question: What about the “pulmonary drug concentrations in lung cryosections” value ([1]; IL-13tg mice, until 8 h after administration) of the same compound?
Answer: 270 to 1940 ng/g

Question: What about the “BTZ-043 concentration in lung cryosections” value ([1]; 0.5 h after last administration) of the same compound?
Answer: 1.32 ± 0.33 ng/mg cryosection

Question: And the “BTZ-043 concentration in lung cryosections” value ([1]; 2 h after last administration)?
Answer: 1.10 ± 0.25 ng/mg cryosection

Question: And the “BTZ-043 concentration in lung cryosections” value ([1]; 4 h after last administration)?
Answer: 0.79 ± 0.12 ng/mg cryosection and 1.94 ± 0.37 ng/mg cryosection

Question: What about the “BTZ-043 concentration in lung cryosections” value ([1]; 8 h after last administration) of the same compound?
Answer: 0.27 ± 0.05 ng/mg cryosection and 0.65 ± 0.06 ng/mg cryosection

Question: And the “pulmonary BTZ-043 concentrations relative to the MIC” value ([1]; all time points investigated (0.5-8 h), n=8 mice)?
Answer: substantially higher than the MIC at all time points investigated

Question: And the “BTZ-043 concentration in the whole section above the MIC” value ([1]; lung cryosections, 4 and 8 h)?
Answer: at least 100 x

Question: What about the “ng/mg lung tissue, technical replicate 1” value [2] of the same compound?
Answer: 5.99 ng/mg and 26 ng/mg and 6.57 ng/mg and 6.4 ng/mg and 5.5 ng/mg and 5.14 ng/mg and 5.58 ng/mg

Question: What about the “ng/mg lung tissue, technical replicate 2” value [2] of the same compound?
Answer: 6.75 ng/mg and 23.9 ng/mg and 6.81 ng/mg and 5.4 ng/mg and 6.51 ng/mg and 6.42 ng/mg

Question: What about the “Extract concentration, technical replicate 1” value ([2]; LC-MS/MS) of the same compound?
Answer: 0.0193 µg/mL and 0.079 µg/mL and 0.0196 µg/mL and 0.0194 µg/mL and 0.0175 µg/mL and 0.0152 µg/mL and 0.0178 µg/mL

Question: What about the “Extract concentration, technical replicate 2” value ([2]; LC-MS/MS) of the same compound?
Answer: 0.0218 µg/mL and 0.0727 µg/mL and 0.0207 µg/mL and 0.0172 µg/mL and 0.0193 µg/mL and 0.0205 µg/mL

Question: What about the “ng/mg lung tissue, Mean” value ([2]; mean of technical replicates) of the same compound?
Answer: 6.37 ng/mg and 6.57 ng/mg and 6.6 ng/mg and 5.45 ng/mg and 5.82 ng/mg and 6 ng/mg
